Legend:
Format in all cases: functional
HepG2 [1] = assay: Hepatoprotective activity against H2O2-induced human HepG2 cells assessed as increase in ALT level
HepG2 [2] = assay: Hepatoprotective activity against H2O2-induced human HepG2 cells assessed as increase in AST level at 25.55 uM
Hepatocyte [3] = assay: Hepatoprotective activity against D-GaIN/TNFalpha induced cell death in mouse hepatocytes assessed as cell survival rate at 100 uM relative to control
Hepatocyte [4] = assay: Hepatoprotective activity against D-GaIN/TNFalpha induced cell death in mouse hepatocytes assessed as cell survival rate at 200 uM relative to control
Mus musculus [5] = organism: Mus musculus; assay: Hepatoprotective activity in mouse liver homogenate assessed as inhibition of iron/ascorbate lipid peroxidation at 5.0 mg/mL relative to control; parameters: scale not given: the % may be the effect or the level left
Hepatocyte [6] = assay: Hepatoprotective activity against D-GaIN/TNFalpha induced cell death in mouse hepatocytes assessed as cell survival rate at 50 uM relative to control
Mus musculus [7] = organism: Mus musculus; assay: Hepatoprotective activity in mouse model of CCl4-induced liver injury assessed as reduction in ALT level at 100 microg/ml (reference value: 40.2 U/mL); details: dose 100 µg/ml
HepG2 [8] = assay: Hepatoprotective activity against H2O2-induced human HepG2 cells assessed as increase in AST level at 186.00 uM
Rattus norvegicus [9] = assay: Hepatoprotective activity in GaIN-induced rat model of liver injury assessed as reduction in ALT level at 4 mg/kg relative to control; parameters: scale not given: the % may be the effect or the level left
Rattus norvegicus [10] = assay: Hepatoprotective activity in ethanol-induced rat model of liver injury assessed as reduction in ALT level at 4 mg/kg relative to control; parameters: scale not given: the % may be the effect or the level left
Mus musculus [11] = organism: Mus musculus; assay: Hepatoprotective activity in CCl4-induced toxicity in liver injured mouse assessed as increase in inhibition of liver damage relative to control; parameters: concentration or dose not given beside the values
Rattus norvegicus [12] = assay: Hepatoprotective activity in ethanol-induced rat model of liver injury assessed as reduction in AST level at 4 mg/kg relative to control; parameters: scale not given: the % may be the effect or the level left
Rattus norvegicus [13] = assay: Hepatoprotective activity in CCl4-induced rat model of liver injury assessed as reduction in ALT level at 4 mg/kg relative to control; parameters: scale not given: the % may be the effect or the level left
Mus musculus [14] = organism: Mus musculus; assay: Hepatoprotective activity in GaIN-induced toxicity in liver injured mouse assessed as increase in inhibition of liver damage at 50 uM relative to control; parameters: scale not given: the % may be the effect or the level left
Mus musculus [15] = organism: Mus musculus; assay: Hepatoprotective activity in CCl4-induced toxicity in liver injured mouse assessed as increase in inhibition of liver damage at 50 uM relative to control; parameters: scale not given: the % may be the effect or the level left
Hepatocyte [16] = assay: Hepatoprotective activity against CCL4-induced rat hepatocyte toxicity assessed as decrease in IL-1beta level at 0.1 mg/mL relative to control; parameters: scale not given: the % may be the effect or the level left
Hepatocyte [17] = assay: Hepatoprotective activity against CCL4-induced rat hepatocyte toxicity assessed as increase in SOD level at 0.25 mg/ml (reference value: 125.8 U/L)
Hepatocyte [18] = assay: Hepatoprotective activity against CCL4-induced rat hepatocyte toxicity assessed as decrease in MDA level at 0.25 mg/ml (reference value: 9.22 nmol/mg)
Hepatocyte [19] = assay: Hepatoprotective activity against CCL4-induced rat hepatocyte toxicity assessed as decrease in AST level at 0.25 mg/ml (reference value: 243.5 U/L)
Hepatocyte [20] = assay: Hepatoprotective activity against CCL4-induced rat hepatocyte toxicity assessed as increase in GSH level at 0.25 mg/ml (reference value: 3.7 mg/g)
Hepatocyte [21] = assay: Hepatoprotective activity against CCL4-induced rat hepatocyte toxicity assessed as decrease in ALT level at 0.25 mg/ml (reference value: 119.0 U/L)

Q: How did the Activity (HepG2 [1]) turn out when `CC(=O)[C@H]1CC(=O)[C@@]2(C)C3=C(C(=O)C[C@]12C)[C@@]1(C)CCC(=O)C(C)(C)[C@@H]1CC3=O` was run?
A: The Activity was 21.42 U/L.

Q: What about the Activity (HepG2 [2]) of the same compound?
A: The Activity was 26.83 U/L.

Q: Which results are given for `C=C(C)[C@@H]1CC[C@]2(C(=O)O)CC[C@]3(C)[C@H](CC[C@@H]4[C@@]5(C)CC[C@H](O)C(C)(C)[C@@H]5CC[C@]43C)[C@@H]12` [BETULINIC ACID]?
A: Activity (Hepatocyte [3]): 26.1%; Activity (Hepatocyte [4]): 23%; Activity (Mus musculus [5]): 52.7%; Activity (Hepatocyte [6]): 39.2%

Q: With `C=C1[C@H](O)C[C@]2(C)CC[C@]3(C)C(=C[C@@H](O)[C@@H]4[C@@]5(C)CC[C@H](OC(C)=O)C(C)(C)[C@@H]5CC[C@]43C)[C@@H]2[C@@H]1C` as the compound, how does the Activity (Mus musculus [7]) read?
A: Its Activity is 15.7 U/ml.

Q: Which results are given for `C/C(=C\CC[C@@H](C)[C@H]1CC[C@@]2(C)C3=C(CC[C@]12C)[C@@]1(C)CC[C@H](O)C(C)(C)[C@@H]1CC3=O)C(=O)O`?
A: Activity (HepG2 [8]): 24.27 U/L; Activity (HepG2 [1]): 20.95 U/L

Q: What does the source list for `C[C@H]1[C@H](C)CC[C@]2(C(=O)O)CC[C@]3(C)C(=CC[C@@H]4[C@@]5(C)C[C@@H](O)[C@H](O)[C@@](C)(CO)[C@@H]5CC[C@]43C)[C@H]12` [ASIATIC ACID]?
A: Activity (Rattus norvegicus [9]): 23.1%; Activity (Rattus norvegicus [10]): 20%; Activity (Mus musculus [11]): 1%; Activity (Rattus norvegicus [12]): 25%

Q: Which Activity (Rattus norvegicus [13]) does the source give for `COC(=O)[C@]12CC[C@@H](C)[C@H](C)[C@H]1C1=CC[C@@H]3[C@@]4(C)C[C@@H](OC)[C@H](OC(C)=O)[C@@](C)(COC(C)=O)[C@@H]4CC[C@@]3(C)[C@]1(C)CC2` here?
A: Its Activity is 33.3%.

Q: How did the Activity (Mus musculus [14]) turn out when `C[C@H]1[C@H](C)CC[C@]2(C(=O)O)CC[C@]3(C)C(=CC[C@@H]4[C@@]5(C)CC(=O)[C@H](O)[C@@](C)(CO)[C@@H]5CC[C@]43C)[C@H]12` was run?
A: The Activity was 49%.

Q: And the Activity (Mus musculus [15])?
A: The Activity was 54.3%.

Q: `C[C@H]1O[C@@H](O[C@H]2CC[C@@]3(C)[C@@H](CC[C@]4(C)[C@@H]3C=C[C@]35OC[C@@]6(CCC(C)(C)C[C@H]63)[C@@H](O)C[C@]54C)[C@]2(C)CO)[C@H](O[C@@H]2O[C@H](CO)[C@@H](O)[C@H](O)[C@H]2O)[C@@H](O[C@@H]2O[C@H](CO)[C@@H](O)[C@H](O)[C@H]2O)[C@H]1O` [BUDDLEJASAPONIN IV] was tested. Which Activity (Hepatocyte [16]) did it give?
A: The Activity was 74.96%.

Q: How did the Activity (Hepatocyte [17]) turn out when `CC1(C)CC[C@]2(C(=O)O[C@@H]3O[C@H](CO[C@@H]4O[C@H](CO)[C@@H](O)[C@H](O)[C@H]4O)[C@@H](O)[C@H](O)[C@H]3O)CC[C@]3(C)C(=CC[C@@H]4[C@@]5(C)CCC(O[C@@H]6OC[C@H](O)[C@H](O)[C@H]6O)[C@@](C)(CO)[C@@H]5CC[C@]43C)[C@@H]2C1` (some centres not stated) was run?
A: The Activity was 161.4 U/L.

Q: What about the Activity (Hepatocyte [18]) of the same compound?
A: The Activity was 9.22 nmol/mg.

Q: And the Activity (Hepatocyte [19])?
A: Its Activity is 167.5 U/L.

Q: What about the Activity (Hepatocyte [20]) of the same compound?
A: Its Activity is 5.3 mg/g.

Q: And the Activity (Hepatocyte [21])?
A: The Activity was 82.1 U/L.

— ChEMBL document CHEMBL5260832, “Hepatoprotective natural triterpenoids” (Eur J Med Chem, 2018)
